Data taken from patent publication US20030195169A1, “Phosphate prodrugs of fluorooxindoles” (priority 2002, published 2003).

Columns and labels:
[1] = test system: cloned mammalian (mSlo or hSlo) BK channels heterologously expressed in Xenopus oocytes; experiment: BK-mediated outward current, two-electrode voltage clamp in Xenopus oocytes; type: cell-based; details: 10 μM; at least 5 oocytes
Method: (§1) The ability of the compound of Formula II to open BK channels and increase whole-cell outward (K^+) BK-mediated currents was assessed under voltage-clamp conditions by determining their ability to increase cloned mammalian (mSlo or hSlo) BK-mediated outward current heterologously expressed in Xenopus oocytes [Butler, A., et al., Science, 261, pp. 221-224 (1993); and Dworetzky, S. I., et al., Mol. Brain Res., 27, pp. 189-193 (1994)]. The two BK constructs employed represent nearly structurally identical homologous proteins, and have proven to be pharmacologically identical in our tests. To isolate BK current from native (background, non-BK) current, the specific and potent BK channel-blocking toxin iberiotoxin (IBTX) [Galvez, A., et al., J. Biol. Chem, 265, pp. 11083-11090 (1990)] was employed at a supramaximal concentration (50 nM). The relative contribution of BK channels current to total outward current was determined by subtraction of the current remaining in the presence of IBTX (non-BK current) from the current profiles obtained in all other experimental conditions (control, drug, and wash). […] The compound of Formula II was shown in at least 5 oocytes at a concentration of 10 μM to increase BK current to 170% of control of IBTX-sensitive current. […]

[2] = test system: non-BK native currents in the oocytes; experiment: Non-BK native currents in oocytes (current remaining in presence of IBTX); type: cell-based, Xenopus; details: at the tested concentration
Method: as §1

[3] = test system: focal cerebral ischemia (MCAO) in the Wistar rat; experiment: Focal stroke model, permanent MCA/CCA occlusion; type: in vivo; details: 0.3 mg/kg intravenously, single bolus two hours after MCAO; vs vehicle-treated control; 24 hours after MCAO
Method: To determine the ability of the compounds of the present invention to reduce cell loss resulting from neuronal ischemia, a standard focal cerebral ischemia is induced by permanent occlusion of the left middle cerebral artery (MCA) and common carotid artery (CCA) with one hour occlusion of the right CCA in the Wistar rat. The surgeries are performed using the sub-temporal approach of A. Tamura, et al., J. Cereb. Blood Flow Metab., 1, pp. 53-60, (1981) and its modifications [K. Osborne, et al., J. Neurol Neurosurg. Psychiatry, 50, pp. 402-410 (1987) and S. Menzies, et al., Neurosurgery, 31, pp. 100-107, (1992)].
The compound of Formula II was evaluated in the focal stroke model involving permanent occlusion of the left MCA (MCAO) and CCA (CCAO) and temporary occlusion of the right CCA in the Wistar rat [Gribkoff, et al. Nature Med. 7, pp. 471-477 (2001)]. This procedure results in a reliably large neocortical infarct volume that is measured by means of vital dye exclusion in serial slices through the brain 24 hours after MCAO. In the present test, compounds were administered using an i.v. or i.p. route of administration two hours after occlusion.

[4] = cited from earlier work
[5] = test system: rat traumatic brain injury (TBI) model; experiment: Rat traumatic brain injury (lateral fluid percussion) model, intracranial pressure (ICP) measurement; type: in vivo; details: 0.08 mg/kg
Method: To determine the ability of the compounds of the present invention to decrease the amount of neuronal damage following head injury, a standard model of traumatic brain injury was employed. The rat traumatic brain injury (TBI) model is used to evaluate compounds for effectiveness in reversing or preventing the deleterious effects of a concussion-like injury. In general, rats in this model were anesthetized, a craniotomy is performed (surgical opening of the skull), and then saline was injected into the opening to produce a precise pulse of increased intracranial pressure (commonly called a fluid percussion injury). Animals were administered compound at the specified doses at 15 minutes following trauma. Animals were euthanized 48 hours post TBI.
Moderate diffuse brain injury (defined by McIntosh, et al. Neuroscience, 28:233-44 (1989)) was induced by a fluid-percussion device. The apparatus produces contusion via the rapid injection of a saline pulse [˜2.1 to 2.7 atmospheres of pressure (atm)] at a constant duration (21-23 millisecond) into a closed cranial cavity. The saline pulse results in the brief displacement and deformation of the underlying cortex. This model is thought to mimic the clinical situation where a patient experiences a concussion-like injury characterized by brief neurological and systemic physiological alterations without severe structural damage. The fluid percussion device produces brain injury without directly impacting the brain. Diffuse brain injury is achieved by the release of a weighted (4.8 kg) metal pendulum from a predetermined height (McIntosh, et al 1989) that strikes a cork-covered piston at the end of a Plexiglass cylindrical reservoir filled with isotonic saline. Varying volumes of saline are injected into the closed cranial cavity producing a pulse of increased intracranial pressure (ICP). Varying the height of the pendulum controls the magnitude of the injury.
In an alternate method, the severity of brain damage was assessed by Intracranial Pressure (ICP) measurement at various intervals post fluid percussion up to 24 hours. In brief, prior to the fluid percussion a burr hole was made 1 mm from the sagittal suture, centered over the right parietal cortex 5 mm from lambda, 5 mm from bregma. Following fluid percussion injury, the trauma cap and cranioplastic cement were removed. In order to achieve adequate ICP values, while still under anesthesia, the craniotomy cap was re-inserted in its original location post fluid percussion. Pre-cut sterile foil was also placed over the craniotomy cap. Cranioplastic cement was placed over the foil to seal the brain cavity. To obtain continuous ICP measurements the probe was inserted into the burr hole and fixed by cranioplastic cement, the animal was then sutured (using 3-0) and the rat was placed in a Hopper cage to allow for free movement during the experiment. Next, the ICP transducer was connected to a Codman ICP monitor for continuous ICP measurements up to 24 hrs post-TBI or post-sham injury. During this time the animal had regular access to water and food. At 24 hrs post-TBI the experiment was terminated and animals were euthanatized by sodium pentobarbital overdose (130 mg/kg; i.p.).
These experiments consist of a sham-vehicle group (SV), a TBI-vehicle group (TV), sham-drug treated groups (SD; 0.08 mg/kg compound of Example 14 [dose equivalent of 0.05 mg/kg compound of Formula (S)-II]) and TBI-drug treated groups (TD; 0.08 mg/kg compound of Example 14). Each sham group acted as a control for the corresponding TBI group. All of the animals underwent anesthesia and surgery. In the TBI groups, brain injury was induced using the lateral fluid-percussion model. Drug treatment was initiated at 15 minutes post-TBI or sham-injury. […] Five minutes post injury absolute ICP (raw data) increased 6.8 mmHg units in TV animals compared to SV animals (SV-5.55 vs. TV-12.35). […]

[6] = Solubility (qualitative statements); type: physicochemical
[7] = Rat blood levels of compound (S)-II after prodrug administration; type: in vivo, male Sprague-Dawley rats; details: intravenous bolus, dose equivalent to 1 mg/kg of (S)-II; whole blood; LC/MS/MS; n=3 rats/timepoint
Method: The compound of Formula (S)-II or a prodrug of Formula I was administered intravenous bolus to male Sprague-Dawley rats (n=3 rats/timepoint) at a target dose equivalent to 1 mg/kg of the compound of Formula (S)-II. At T=0.25, 1 and 2 hours post-dose, whole blood samples were collected and extracted with acetonitrile. Blood extracts were analyzed by LC/MS/MS for levels of the compound of Formula (S)-II.

In the case of `COc1ccc(Cl)cc1C1(F)C(=O)Nc2cc(C(F)(F)F)ccc21` (racemic) [compound of Formula II, 3-(5-chloro-2-methoxyphenyl)-1,3-dihydro-3-fluoro-6-(trifluoromethyl)-2H-indol-2-one], the “BK current, % of control of IBTX-sensitive current” value [1] is reported as 170 % of control, the “effect on non-BK native currents in the oocytes” value [2] is reported as “did not effect non-BK native currents” and the “reduction of cortical infarct volume” value [3] is reported as “about 28%”.
In the case of `COc1ccc(Cl)cc1[C@]1(F)C(=O)Nc2cc(C(F)(F)F)ccc21` [Compound of Formula (S)-II, (3S)-(+)-(5-chloro-2-methoxyphenyl)-1,3-dihydro-3-fluoro-6-(trifluoromethyl)-2H-indol-2-one], the aqueous solubility [4] is listed as “low aqueous solubility”.
With `COc1ccc(Cl)cc1[C@]1(F)C(=O)N(COP(=O)([O-])[O-])c2cc(C(F)(F)F)ccc21.[K+].[K+]` [Example 14, (S)-Phosphoric acid mono-[3-(5-chloro-2-methoxy-phenyl)-3-fluoro-2-oxo-6-trifluoromethyl-2,3-dihydro-indol-1-ylmethyl] ester, potassium salt] the “intra-animal mean ICP reduction, TD” value ([5]; 30 minutes post injury) was −2.85 mmHg, the “intra-animal mean ICP reduction, TD” value ([5]; 45 minutes post injury) was −3.95 mmHg and the “absolute ICP, TD vs TV, significance” value ([5]; 45 minutes, 60 minutes, 2, 3, 4 and 24 hours post-TBI) was “significantly different from TV”. For the same compound, the “intra-animal mean ICP reduction, TD” value ([5]; 60 min post injury) was −4.5 mmHg, the “reduction of absolute ICP, TD vs TV” value ([5]; 60 minutes post injury (45 minutes post-drug injection)) was 3.1 mmHg units and the “intra-animal mean ICP reduction, TD” value ([5]; 2 hours post injury) was −4.3 mmHg. For the same compound, the “intra-animal mean ICP reduction, TD” value ([5]; 3 hr post injury) was −4.3 mmHg, the “intra-animal mean ICP reduction, TD” value ([5]; 4 hours post injury) was −4.15 mmHg and the “intra-animal mean ICP reduction, sham-drug group (SD)” value ([5]; 4 hours post-sham injury) was −2.1 mmHg. For the same compound, the “intra-animal mean ICP reduction, TD” value ([5]; 24 hours post injury) was −3.05 mmHg and the “ICP, SD vs SV, significance” value ([5]; sham injury, until 4 hours post-sham injury) was “did not significantly differ from SV”.
In the case of `COc1ccc(Cl)cc1[C@]1(F)C(=O)N(COP(=O)([O-])[O-])c2cc(C(F)(F)F)ccc21.[Mg+2]` [Example 18, (S)-Phosphoric acid mono-[3-(5-chloro-2-methoxy-phenyl)-3-fluoro-2-oxo-6-trifluoromethyl-2,3-dihydro-indol-1-ylmethyl] ester, magnesium salt], the solubility in water [6] is reported as “marginally soluble in water” and the “solubility in organic solvents” value ([6]; relative to water) is reported as “more soluble in organic solvents”.
With “(S)-Phosphoric acid mono-[3-(5-chloro-2-methoxy-phenyl)-3-fluoro-2-oxo-6-trifluoromethyl-2,3-dihydro-indol-1-ylmethyl] ester, mono tetrabutylammonium salt [Example 2]” the “Truncated Blood AUC(0.25-2 hr) Compound of Formula (S)-II” value [7] was 188 ng·h/mL.
